Test results from ChEMBL document CHEMBL1122472, “Anticoccidial activity of 1-phenyluracils” (1983).

What follows are compounds tested on Eimeria tenella (assay: Minimum effective concentration (MEC) against Eimeria tenella to prevent infection and to maintain zero lesion scores). Settings: read-out: MEC.
Assay type: functional

Row | Structure (SMILES) | minimal effective concentration [µg/mL]
1 | O=c1ccn(-c2ccc(Oc3ccc(Cl)cc3)c(Cl)c2)c(=O)[nH]1 | > 500
2 | Cc1cc(-n2ccc(=O)[nH]c2=O)cc(Cl)c1Sc1ccc(Cl)cc1 | 60
3 | Cc1cc(C)cc(-n2ccc(=O)[nH]c2=O)c1 | > 250
4 | O=c1ccn(-c2cc(Cl)cc(Cl)c2)c(=O)[nH]1 | 125
5 | Cc1cc(-n2ccc(=O)[nH]c2=O)cc(C)c1Sc1ccc(Cl)cc1 | 500
6 | Cc1cc(-n2ccc(=O)[nH]c2=O)cc(Cl)c1S(=O)(=O)c1ccc(Cl)cc1 | < 125
